# Experimental data as given in patent US11169138B2, “Nanopores with internal protein adaptors” (priority 2015, dated 2021).
# “Also recorded” adds a separate entry of the source. Where two headings read alike, the source gives them in different places.
# Legend:
# [1] = biological target: T1, AlkB-Fe^++ (E. coli AlkB demethylase) (Escherichia coli, UniProt P05050); assay: Ligand binding to AlkB-Fe++ confined inside ClyA-AS nanopore, single-channel ionic current recording
# T1 construct: made in house; host or cells: E. cloni EXPRESS BL21(DE3) E. coli
# T1 sequence (P05050 with tags, fused parts or gaps): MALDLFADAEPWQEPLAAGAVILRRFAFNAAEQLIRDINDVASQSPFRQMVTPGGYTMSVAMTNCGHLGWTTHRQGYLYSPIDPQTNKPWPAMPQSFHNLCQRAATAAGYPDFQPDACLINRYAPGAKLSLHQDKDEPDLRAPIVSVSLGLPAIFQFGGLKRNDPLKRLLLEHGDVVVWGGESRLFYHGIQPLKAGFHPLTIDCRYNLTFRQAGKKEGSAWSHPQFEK
# Experimental: (§1) The applied potential refers to the potential of the trans electrode. ClyA-AS nanopores were inserted into lipid bilayers from the cis compartment, which was connected to the ground electrode. The two compartments were separated by a 25 μm thick polytetrafluoroethylene film (Goodfellow Cambridge Limited) containing an orifice of ˜100 μm in diameter. The aperture was pretreated with ˜5 μl of 10% hexadecane in pentane and a bilayer was formed by the addition of ˜10 μL of 1,2-diphytanoyl-sn-glycero-3-phosphocholine (DPhPC) in pentane (10 mg/mL) to both electrophysiology chambers. Typically, the addition of 0.01-0.1 ng of oligomeric ClyA-AS to the cis compartment (0.5 mL) was sufficient to obtain a single channel. […] Electrical recordings were carried out in 150 mM NaCl, 15 mM Tris.HCl pH 8.0 (AlkB experiments) or 150 mM NaCl, 15 mM Tris.HCl pH 7.5 (DHFR experiments). The temperature of the recording chamber was maintained at 28° C. by water circulating through a metal case in direct contact with the bottom and sides of the chamber.
# (§2) Electrical signals from planar bilayer recordings were amplified using an Axopatch 200B patch clamp amplifier (Axon Instruments) and digitized with a Digidata 1440 A/D converter (Axon Instruments). Data were recorded by using the Clampex 10.4 software (Molecular Devices) and the subsequent analysis was carried out with the Clampfit software (Molecular Devices). Electrical recordings were performed in 150 mM NaCl, 15 mM Tris.HCl pH 8.0 (AlkB) or pH 7.5 (DHFR) by applying a 2 kHz low-pass Bessel filter and a 10 kHz sampling rate. For further analysis traces were filtered digitally with a Bessel (8-pole) low-pass filter with a 50 Hz cut-off. Residual current values (IRES%) were calculated from blocked pore current values (IB) and open pore current values (IO) as IRES %=100*IB/IO. IB and IO were determined from Gaussian fits to all point current histograms (0.05 pA bin size) for at least 15 individual protein blockades. ΔIRES % values were calculated from IRES % using propagation of errors.
# (§3) Current transitions from level 1 were analyzed with the “single-channel search” function in Clampfit. The detection threshold to collect the ligand-induced events for AlkB was set to 4 pA and events shorter than 10 ms were ignored. […] The resulting event dwell times (toff) and the time between events (ton) were binned together as cumulative distributions and fitted to a single exponential to retrieve the ligand-induced lifetimes (τoff) and the ligand-induced event frequencies (f=1/τon). The process of event collection was monitored manually. For AlkB, final values of τon and τoff were based on average values derived from at least 3 single channel experiments at each concentration. Each experiment analysed more than 8 AlkB blockades. At the low ligand concentrations (0.2 mM) about 100 ligand-binding events were measured. Otherwise more than 150 events were collected. […] Subsequently, the ton values were binned together as cumulative distributions and fitted to a single exponential fit to retrieve characteristic τon values. The values for koff represented in FIG. 2b and FIG. 4b were determined by taking the average±standard deviations of 1/toff of at least 3 single channel experiments. The values of the association rate constants (kon) were determined from the slope of the linear regression curves calculated from the dependency of the event frequencies (f=1/τon) on the ligand concentration (OriginLab, FIGS. 2b and 4b). Graphs were made with Origin (OriginLab Corporation) or Clampfit software (Molecular Devices).
# 9, 872-877; Bleijlevens, B. et al. (2012) Biochem. 2012, 51, 3334-3341].
# [2] = biological target: SBD2 (Lactococcus lactis, UniProt Q9CES5); assay: Glutamine binding to SBD2 inside type I ClyA-AS nanopore
# Experimental: The interaction of SBD2 with glutamine was sampled using type I ClyA-AS nanopores at −100 mV. The addition of 72 nM of SBD2 induced a current blockade that fluctuated between two levels I (Ires %=63.6±0.3%, τ=256±5 ms, N=3) and level III (Ires %=61.0±0.2%, τ=145±13 ms, N=3). Protein blockades remained inside the nanopore for 3.9±0.7 s (mean±S.E., n=225). Rarely the current visited an additional ionic current level, Level II (Ires %=62.5±0.3%, τ=18±1 ms, n=856, N=3).
# We studied ligand binding by stepwise addition of glutamine at concentrations ranging from 200 nM to 3 μM. […] Binding rates were determined from the lifetimes as described above. Upon linear fitting of the binding rate curve the glutamine binding rates from Level I and III were determined. […] The opening rate constant was determined by the intercept at zero koff=39.7 s^1.
# [3] = biological target: T2, DHFRtag:MTX (Escherichia coli, UniProt P0ABQ4, C152S/C85A); assay: Ligand binding to DHFRtag:MTX complex confined inside ClyA-AS nanopore, single-channel recording; parameters: species or system E. coli
# T2 construct: Met-Ala-Ser-Ala (N); made in house; host or cells: E. cloni EXPRESS BL21(DE3) E. coli
# T2 sequence (P0ABQ4 1-159 C85A/C152S): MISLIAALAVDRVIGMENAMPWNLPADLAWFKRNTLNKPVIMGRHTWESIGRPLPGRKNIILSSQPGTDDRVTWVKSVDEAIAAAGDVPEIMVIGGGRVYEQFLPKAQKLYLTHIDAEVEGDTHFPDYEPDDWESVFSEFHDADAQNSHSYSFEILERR
# Experimental: as §1, §2, §3
# [4] = biological target: T3, DHFR (Escherichia coli, UniProt P0ABQ4, C152S/C85A); assay: Ligand effects on DHFR (untagged construct) blockades of ClyA-AS nanopore; format: binding, E. coli; conditions: 20 μM NADPH cis after 400 nM MTX, −90 mV
# T3 construct: Met-Ala-Ser-Ala (N); made in house; host or cells: E. cloni EXPRESS BL21(DE3) E. coli
# T3 sequence (P0ABQ4 1-159 C85A/C152S): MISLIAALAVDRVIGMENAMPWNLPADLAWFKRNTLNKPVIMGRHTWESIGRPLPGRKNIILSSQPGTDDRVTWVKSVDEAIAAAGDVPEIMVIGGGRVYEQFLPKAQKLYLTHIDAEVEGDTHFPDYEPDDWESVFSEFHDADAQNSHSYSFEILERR
# [5] = biological target: SBD1 (Lactococcus lactis, UniProt Q9CES5); assay: Asparagine binding to SBD1 inside type I ClyA-AS nanopore
# Experimental: The interaction of SBD1 with asparagine was sampled using type I ClyA-AS nanopores. ClyA-AS (C87A/L99Q/E103G/F166Y/I203V/C285S/K294R/H307Y). In 150 mM NaCl and 15 mM Tris-HCl (pH 7.5), the addition of 74 nM of SBD1 to the cis compartment of Type I ClyA-AS induced transient current blockades at negative applied potentials (trans). […] Every 3.5±0.1 s^−1 (mean±S.E., n=212) the current switched to Level II (Ires %=66.8±0.4%, N=5) with a lifetime of 109±1 ms (mean±S.E., n=340). The protein blockades released spontaneously after 4.2±1.8 s (mean±S.E., n=291).
# The dissociation constant was determined by titrating the substrate and plotting the relative closed population (CL/(O+CL)), determined from the area of the all point current histogram, versus the concentration. […] The closing and opening rate constants were determined from the inverse of the open and closed state lifetimes respectively and were plotted versus the asparagine concentration. The closing rate was linearly dependent on the substrate concentration and the slope of the linear fit gave the kclosing=1.2×10^7 s^−1 M^−1.
structure (smiles),measurement,setting,value
"O=C(O)CNC(=O)C(=O)O [N-OG, N-oxalylglycine]",koff,"[1]; pH 8, read-out: koff −60 mV",0.57 ± 0.1 s⁻¹
same,kon,"[1]; pH 8, read-out: kon −60 mV",1200 ± 300000 M⁻¹ s⁻¹
same,L2B ΔIRES % (ligand-induced current enhancement from L2),"[1]; −60 mV, 150 mM NaCl, 15 mM Tris HCl pH 8.0, 28° C., ligand cis",+1.7 ± 1.0%
same,mean duration (toff) of ligand-induced events,"[1]; −60 mV, ligand cis",1.8 ± 0.4 s
NC(=O)CC[C@H](N)C(=O)O [glutamine],Kd,[2],1270 ± 140 nM
same,kon,"[2]; read-out: kon, binding from Level I",3.7e+07 M⁻¹ s⁻¹
same,kon,"[2]; read-out: kon, binding from Level II (so in the source)",3.8e+07 M⁻¹ s⁻¹
same,koff (opening rate constant),"[2]; −100 mV, intercept at zero",39.7 s^1
NC(=O)C1=CN([C@@H]2O[C@H](COP(=O)(O)OP(=O)(O)OC[C@H]3O[C@@H](n4cnc5c(N)ncnc54)[C@H](OP(=O)(O)O)[C@@H]3O)[C@@H](O)[C@H]2O)C=CC1 [NADPH],enhancement of residual ionic current on NADPH binding,"[3]; DHFR10+/4+/tag:MTX complexes, −90 mV",~4 pA
same,"DHFRtag:MTX blockades with ""long"" NADPH events",[3]; NADPH trans,~55%
same,"DHFRtag:MTX blockades with ""short"" NADPH events",[3]; NADPH trans,Approximately 45%
same,"kon, ""long"" NADPH events",[3]; −90 mV,4.8e+06 ± 1.2e+06 M⁻¹ s⁻¹
same,"kon, ""short"" NADPH events",[3]; −90 mV,5.8e+06 ± 1.2e+06 M⁻¹ s⁻¹
same,"ΔIRES %, ""long"" NADPH events",[3]; −90 mV,2.7±0.7%
same,"ΔIRES %, ""short"" NADPH events",[3]; −90 mV,2.2±0.9%
same,"lifetime of ""long"" NADPH binding events","[3]; −90 mV, NADPH trans",> 3 s
same,"lifetime of ""short"" NADPH binding events","[3]; −90 mV, NADPH trans",38.5 ± 0.8 ms
same,kon −90 mV,"[3]; −90 mV, pH 7.5, 28° C.",4.8 ± 1.2 × 10^6 s^−1 M^−1
same,L2B ΔIRES % (first NADPH column as printed),"[3]; −90 mV, pH 7.5, 28° C., ligand trans",+2.7 ± 0.7%
same,L1B ΔIRES %,"[3]; −90 mV, pH 7.5, 28° C., ligand trans, from L1",+2.7±0.7%
same,L2B ΔIRES %,"[3]; −90 mV, pH 7.5, 28° C., ligand trans, from L2",+5.4 ± 1.0%
same,effect of NADPH on DHFR blockades in presence of MTX,[4],abolished; also recorded: nearly total elimination of the DHFR blockades
NC(=O)C[C@H](N)C(=O)O [asparagine],Kd,[5],470 ± 30 nM
same,kon,"[5]; pH 7.5, read-out: kclosing",1.2e+07 M⁻¹ s⁻¹
same,koff,"[5]; pH 7.5, read-out: kopening",9.4 s⁻¹
